Test results as given in publication PMC11814485, “Screening of homing and tissue-penetrating peptides by microdialysis and in vivo phage display” (Life Science Alliance, 2025).

Columns and labels:
[1] = system: retina (OIR model); assay: Homing of FAM-peptides to retina and vitreous in oxygen-induced retinopathy (OIR) and to normal retina; type: in vivo, mouse (C57BL/6Rj); conditions: for peptide accumulation in the vitreous of the OIR retina relative to the control peptide / area of positive staining in OIR retina relative to a control peptide: OIR mice P17, 5 mg/kg, 120 min circulation, anti-FAM; for area of positive staining in OIR retina relative to a control peptide: N = 8; for homing signal in OIR retinas around retinal and preretinal blood vessels: OIR mice P17, 120 min, anti-FAM staining
Description: (§1) Figure 3. Microdialysis-captured peptides home to skin wounds and penetrate blood–retina barrier in retinopathy. Systemically administered homing peptides CDD, CPK, and CYH accumulate in skin wounds and penetrate blood–retina barrier in retinopathy. Full-thickness wounds, 6 mm in diameter, in the back skin of 8-wk-old male mice were used. After 7 d, each peptide or PBS was injected into the tail vein. For retinopathy experiments, oxygen-induced retinopathy (OIR) was induced by placing mouse pups at day P7 in a hyperoxia chamber for 5 d. On P17, when the angiogenesis peaks in this OIR model, the peptides were injected into the tail vein. The peptides circulated for 150 min (wounds) and 120 min (OIR) before the vasculature was thoroughly perfused. The skin wounds and eyeballs were fixed, and histological samples stained with anti-FAM and hematoxylin. Peptide homing was quantified with the automated image analysis system. (A) Microdialysis-identified peptides home to skin wounds. […] (D) All three microdialysis-identified peptides also accumulate substantially in the vitreous in the OIR model. *P < 0.05, **P < 0.01, ***< 0.001. Each datapoint represents an individual wound, retina, or vitreous. N = 3 for skin wound, and N = 6 and N = 8 for normal and OIR retinas.
We wanted to explore whether the new wound-penetrating peptides externalize and penetrate tissues that have an additional barrier around the blood vessels. The retinal blood vessels have an additional element, blood–retina barrier (BRB) that hinders the access of systemically administered drugs to retina ([Lahdenranta et al, 2007]; [Sweeney et al, 2019]; [Vähätupa, et al, 2020b]). Thus, we explored the homing of the new peptides to the normal retina and to the retinal angiogenesis in the oxygen-induced retinopathy (OIR) model ([Vähätupa, et al, 2020b]). […] Next, we quantified the area of positive staining in the retina. There was ninefold more of CYH (P < 0.01) and 120-fold and 88-fold more of CDD and CPK than of a control peptide in OIR retinas (P < 0.0001 for the CDD and CPK peptides) (Fig 3C).
Figure 4. Microdialysis-captured peptides home and penetrate to retina in retinopathy. The CDD, CPK, and CYH peptides accumulate in the retina and vitreous in oxygen-induced retinopathy (OIR). The OIR model was carried out as described previously ([Vähätupa et al, 2020b]). At P17, the peptides were injected into the tail vein and circulated for 120 min before the vasculature was thoroughly perfused. The eyeballs were fixed and histological sections stained with anti-FAM antibody and hematoxylin. (A) None of the tested peptides homed to the normal retina after the systemic administration at P17. (B) Three microdialysis-identified homing peptides homed and penetrated into the retina in OIR at the peak of angiogenesis at P17. The peptides also accumulate in the vitreous in the OIR model. (A, B, C) High-magnification images of peptide accumulation in OIR retina. The scale bar is 100 μm for (A, B) and 20 μm for (C). Images are representative of N = 6 and N = 8 for normal and OIR retinas.
WT C57BL/6Rj mice were used for the OIR experiments ([Vähätupa, et al, 2020a]). The OIR model was performed as described in detail previously ([Vähätupa, et al, 2020a]; [De Rossi et al, 2021]). Briefly, to induce retinopathy in the retina, the pups and their nursing mothers were exposed to 75% oxygen in a custom-made chamber (ProOx P110 oxygen controller; BioSpherix Ltd.) at postnatal day 7 (P7) for 5 d until P12 when they were returned to normal room air. The homing experiments were performed at P17 (late hypoxic phase and the peak of neovascularization) ([Vähätupa et al, 2021]). Control animals were housed under normal room air conditions, and retinas were harvested on the corresponding day (P17). All retina experiments were conducted under the ARVO Statement for the Use of Animals in Ophthalmic and Vision Research guidelines. […]

[2] = system: skin wounds; assay: Homing of systemically administered FAM-peptides to mouse skin excision wounds and normal organs (anti-FAM staining, QuPath); type: in vivo, mouse (BALB/cJRj); conditions: for localisation in skin wound / accumulation in normal organs: tail vein, 150 min; for localisation in skin wound: anti-FAM and anti-CD31 staining; for accumulation in normal organs: normal skin, heart, liver, lung, spleen, kidney, anti-FAM staining
Description: We next studied homing of systemically administered CDD, CPK, and CYH peptides in mouse skin excision wounds at the peak of neovascularization, 7 d after wounding. The peptides were injected into the tail vein and allowed to circulate for 2.5 h. The systemically administered peptides were detected in the granulation tissue of the wounds outside of the blood vessels (Figs 2 and S4). […] In contrast, the peptides were undetectable in normal skin (Fig S5A), heart, liver, lung, and spleen (Fig S5B), except for strong signal related to peptide secretion from the kidney glomeruli (Fig S5B).
Figure 2. Microdialysis-captured peptides home to skin wounds and localize in granulation tissue. […] Six-mm-diameter full-thickness wounds were cut in the back skin of 8-wk-old male mice. After 7 d, the peptides or PBS was injected systemically (tail vein). The peptides were allowed to circulate for 150 min before the vasculature was thoroughly perfused. The wound tissue was fixed, and microscopic sections were stained with anti-FAM and hematoxylin. (A, B) Magnifications of areas marked in panel (A) are represented in panel (B) with adjacent sections stained with anti-CD31 to visualize the blood vessels. The scale bar is 500 μm for panel (A) and 125 μm for panel (B). Images are representative of two separate experiments, four mice in each peptide group.
as §1
Male BALB/cJRj and diabetic male BKS(D)-Lepr^db/JOrlRj mice were used for the peptide homing experiment. The BALB/cJRj mice were 8 wk old and weighed 24–28 g. The BKS(D)-Lepr^db/JOrlRj mice were 14 wk old and weighed 45–58 g, and their blood sugar levels were over 33 mmol/liter. Four full-thickness circular wounds were created on a shaved and disinfected skin with a 6-mm-diameter biopsy punch and scissors under isoflurane anesthesia (Attane vet 1,000 mg/g; Piramal Critical Care B.V.) and buprenorphine analgesia (0.15 mg/kg; Vetergesic vet 0.3 mg/ml; Ceva Santé Animal). Seven days after the wounding, the homing experiment was performed. The animal use was accepted by the National Animal Ethics Committee of Finland on 12 September 2017 (ESAVI/6422/04.10.07/2017) and on 4 January 2022 (ESAVI/39175/2021).
BALB/cJRj and diabetic male BKS(D)-Lepr^db/JOrlRj mice with 7-d-old skin wounds were used for the peptide homing experiment. FAM-labeled peptides were dissolved in the PBS just before the experiment. 5 mg/kg (BALB/cJRj) or 1,5 mg/kg (BKS(D)-Lepr^db/JOrlRj) of each peptide (CAR, CDD, CPK, CYH, and a control peptide) in PBS or plain PBS (control) was injected on the tail vein under sevoflurane anesthesia. […]

[3] = system: CHO-K cells; assay: Peptide internalization in vitro, confocal imaging, CHO-K cells; type: cell-based, Chinese hamster; conditions: FAM-labeled peptide 20 μM, 3 h, 37°C, confocal fluorescence imaging, representative of three experiments
Description: Figure 1. Microdialysis-captured peptides penetrate the cell membrane. […] CHO-K cells were grown on chamber slides. […] The scale bar is 20 μm. Images are representative of three individual experiments.
Plain growth medium was used as a negative control.

Row | Sequence | peptide accumulation in the vitreous of the OIR retina relative to the control peptide [1] | area of positive staining in OIR retina relative to a control peptide [1] | homing signal in OIR retinas around retinal and preretinal blood vessels [1] | accumulation in skin wounds relative to a control ([2]; mouse day 7 wound, 5 mg/kg tail vein, 150 min circulation, anti-FAM positive area, N = 3) | localisation in skin wound ([2]; mouse day 7 wound) | accumulation in normal organs [2] | cellular uptake in CHO-K cells [3]
1 | CDDYQQISC [FAM-labeled synthetic peptide …] | 67.2 × | 120 fold | strong homing signal | 12 fold | accumulated in wound regions containing blood vessels and in surrounding extravascular granulation tissue | do not accumulate in normal, healthy organs except in the kidneys | accumulate in the CHO-K cells
2 | CPKKHHLDC [FAM-labeled synthetic peptide …] | 80.3 × | 88 fold | strong homing signal | – | accumulated in wound regions containing blood vessels and in surrounding extravascular granulation tissue | do not accumulate in normal, healthy organs except in the kidneys | accumulate in the CHO-K cells
3 | CYHDTYPNC [FAM-labeled synthetic peptide …] | 16.9 × | ninefold | strong homing signal | – | accumulated in wound regions containing blood vessels and in surrounding extravascular granulation tissue | do not accumulate in normal, healthy organs except in the kidneys | accumulate in the CHO-K cells
